# In ChEMBL document CHEMBL4396887, “Five-Membered N-Heterocyclic Scaffolds as Novel Amino Bioisosteres at γ-Aminobutyric Acid (GABA) Type A Receptors and GABA Transporters” (J Med Chem, 2019):
# Activity calls are given as the source filed them. The rule behind the calls is not given here.
# Columns and labels:
# [1] = species on record: Homo sapiens; experiment: Agonist activity at recombinant human GABA-A alpha3beta2gamma2S receptor transiently expressed in human tsA201 cells assessed as GABA-induced maximum response incubated for 30 mins and measured up to 90 secs by FMP dye based FLIPR membrane potential blue assay relative to GABA; assay type: cell-based
# [2] = Ionization constant, pKa2 of the compound at 1 mM by potentiometric titration assay; assay type: physicochemical
# [3] = biological target: T1, Gamma-aminobutyric acid receptor subunit alpha-4/beta-2/gamma-2 (Homo sapiens, UniProt P47870+P18507+P48169); experiment: Agonist activity at recombinant human GABA-A alpha4beta2gamma2S receptor transiently expressed in human tsA201 cells assessed as GABA-induced maximum response incubated for 30 mins and measured up to 90 secs by FMP dye based FLIPR membrane potential blue assay relative to GABA; assay type: cell-based
# [4] = biological target: T2, GABA-A receptor; alpha-1/beta-2/gamma-2 (Homo sapiens) (UniProt P14867+P47870+P18507); experiment: Agonist activity at recombinant human GABA-A alpha1beta2gamma2S receptor transiently expressed in human tsA201 cells assessed as GABA-induced maximum response incubated for 30 mins and measured up to 90 secs by FMP dye based FLIPR membrane potential blue assay relative to GABA; assay type: cell-based
# [5] = biological target: T3, Gamma-aminobutyric acid receptor subunit rho-1 (Homo sapiens, UniProt P24046); experiment: Agonist activity at recombinant human GABA-A rho-1 receptor transiently expressed in human tsA201 cells assessed as GABA-induced maximum response incubated for 30 mins and measured up to 90 secs by FMP dye based FLIPR membrane potential blue assay relative to GABA; assay type: cell-based
# [6] = biological target: T4, Gamma-aminobutyric acid receptor subunit alpha-5/beta-2/gamma-2 (Homo sapiens, UniProt P18507+P31644+P47870); experiment: Agonist activity at recombinant human GABA-A alpha5beta2gamma2S receptor transiently expressed in human tsA201 cells incubated for 30 mins and measured up to 90 secs by FMP dye based FLIPR membrane potential blue assay; assay type: cell-based
# T4 sequence (P47870 whole entry): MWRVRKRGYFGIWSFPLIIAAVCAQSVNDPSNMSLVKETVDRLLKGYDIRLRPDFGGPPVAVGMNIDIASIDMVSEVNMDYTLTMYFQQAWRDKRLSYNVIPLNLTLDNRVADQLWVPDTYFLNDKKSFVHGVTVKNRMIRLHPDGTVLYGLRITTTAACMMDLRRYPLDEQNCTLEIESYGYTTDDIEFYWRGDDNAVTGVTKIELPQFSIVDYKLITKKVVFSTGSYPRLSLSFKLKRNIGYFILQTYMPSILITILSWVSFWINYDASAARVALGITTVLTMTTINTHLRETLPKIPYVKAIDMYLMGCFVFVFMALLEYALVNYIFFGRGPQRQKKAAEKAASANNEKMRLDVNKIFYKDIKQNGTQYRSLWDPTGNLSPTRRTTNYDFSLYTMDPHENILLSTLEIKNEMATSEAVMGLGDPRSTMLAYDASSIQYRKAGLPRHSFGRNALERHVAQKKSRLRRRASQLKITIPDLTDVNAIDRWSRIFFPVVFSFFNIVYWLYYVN
# T4 sequence (P18507 whole entry): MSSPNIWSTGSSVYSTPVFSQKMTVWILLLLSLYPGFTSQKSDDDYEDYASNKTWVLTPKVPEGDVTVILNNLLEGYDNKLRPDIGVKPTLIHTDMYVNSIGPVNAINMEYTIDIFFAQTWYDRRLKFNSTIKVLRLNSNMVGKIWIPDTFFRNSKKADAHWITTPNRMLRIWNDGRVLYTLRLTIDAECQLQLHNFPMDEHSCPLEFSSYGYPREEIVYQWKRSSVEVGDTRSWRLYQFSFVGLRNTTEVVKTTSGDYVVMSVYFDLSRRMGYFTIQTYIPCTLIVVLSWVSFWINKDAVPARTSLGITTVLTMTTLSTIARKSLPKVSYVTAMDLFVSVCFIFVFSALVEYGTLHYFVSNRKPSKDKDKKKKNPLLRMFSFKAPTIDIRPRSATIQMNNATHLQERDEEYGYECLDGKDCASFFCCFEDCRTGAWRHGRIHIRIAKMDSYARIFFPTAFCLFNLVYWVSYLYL
# T4 sequence (P31644 whole entry): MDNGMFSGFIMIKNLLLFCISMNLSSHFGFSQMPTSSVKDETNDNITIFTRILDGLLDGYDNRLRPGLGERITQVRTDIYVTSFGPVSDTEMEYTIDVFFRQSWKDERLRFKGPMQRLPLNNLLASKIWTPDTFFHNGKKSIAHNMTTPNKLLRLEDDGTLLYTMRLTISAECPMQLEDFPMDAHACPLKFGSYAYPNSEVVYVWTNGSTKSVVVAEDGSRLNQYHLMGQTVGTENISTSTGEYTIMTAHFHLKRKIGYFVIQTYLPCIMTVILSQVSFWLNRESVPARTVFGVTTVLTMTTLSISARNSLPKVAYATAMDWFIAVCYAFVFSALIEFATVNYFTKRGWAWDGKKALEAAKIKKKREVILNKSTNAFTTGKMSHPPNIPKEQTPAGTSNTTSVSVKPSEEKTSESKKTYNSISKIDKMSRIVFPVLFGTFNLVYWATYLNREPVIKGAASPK
# [7] = biological target: T3, Gamma-aminobutyric acid receptor subunit rho-1; experiment: Agonist activity at recombinant human GABA-A rho-1 receptor transiently expressed in human tsA201 cells incubated for 30 mins and measured up to 90 secs by FMP dye based FLIPR membrane potential blue assay; assay type: cell-based
# [8] = cells; assay type: cell-based; settings: Homo sapiens, tsA201, 0.5 h
# [9] = biological target: Gamma-aminobutyric acid receptor subunit alpha-4/beta-2/gamma-2 (Homo sapiens, UniProt P18507+P47870+P48169); experiment: (§1) Agonist activity at recombinant human GABA-A alpha4beta2gamma2S receptor transiently expressed in human tsA201 cells incubated for 30 mins and measured up to 90 secs by FMP dye based FLIPR membrane potential blue assay; assay type: cell-based; settings: read-out: EC50
# [10] = biological target: T3, Gamma-aminobutyric acid receptor subunit rho-1; experiment: Agonist activity at recombinant human GABA-A rho-1 receptor transiently expressed in human tsA201 cells at >= 100 uM incubated for 30 mins and measured up to 90 secs by FMP dye based FLIPR membrane potential blue assay; assay type: cell-based
# [11] = biological target: Gamma-aminobutyric acid receptor subunit alpha-5/beta-2/gamma-2 (Homo sapiens) (UniProt P47870+P18507+P31644); experiment: Agonist activity at recombinant human GABA-A alpha5beta2gamma2S receptor transiently expressed in human tsA201 cells assessed as GABA-induced maximum response incubated for 30 mins and measured up to 90 secs by FMP dye based FLIPR membrane potential blue assay relative to GABA; assay type: cell-based
# [12] = biological target: T1, Gamma-aminobutyric acid receptor subunit alpha-4/beta-2/gamma-2; experiment: Agonist activity at recombinant human GABA-A alpha4beta2gamma2S receptor transiently expressed in human tsA201 cells at >= 100 uM incubated for 30 mins and measured up to 90 secs by FMP dye based FLIPR membrane potential blue assay; assay type: cell-based
# [13] = species on record: Homo sapiens
# [14] = biological target: T2, GABA-A receptor; alpha-1/beta-2/gamma-2 (Homo sapiens); experiment: Agonist activity at recombinant human GABA-A alpha1beta2gamma2S receptor transiently expressed in human tsA201 cells at >= 100 uM incubated for 30 mins and measured up to 90 secs by FMP dye based FLIPR membrane potential blue assay; assay type: cell-based
# [15] = biological target: GABA-A receptor; anion channel; experiment: Displacement of [3H]muscimol from GABA(A) receptor in Sprague-Dawley rat cortical synaptic membranes by liquid scintillation counting
# [16] = species on record: Homo sapiens; experiment: Agonist activity at recombinant human GABA-A alpha3beta2gamma2S receptor transiently expressed in human tsA201 cells at >= 100 uM incubated for 30 mins and measured up to 90 secs by FMP dye based FLIPR membrane potential blue assay; assay type: cell-based
# [17] = biological target: T2, GABA-A receptor; alpha-1/beta-2/gamma-2 (Homo sapiens); experiment: (§2) Agonist activity at recombinant human GABA-A alpha1beta2gamma2S receptor transiently expressed in human tsA201 cells incubated for 30 mins and measured up to 90 secs by FMP dye based FLIPR membrane potential blue assay; assay type: cell-based
# [18] = biological target: T5, GABA-A receptor; alpha-1/beta-2/gamma-2 (Homo sapiens, UniProt P14867+P47870+P18507); experiment: as §2; assay type: cell-based
# T5 sequence (P14867 whole entry): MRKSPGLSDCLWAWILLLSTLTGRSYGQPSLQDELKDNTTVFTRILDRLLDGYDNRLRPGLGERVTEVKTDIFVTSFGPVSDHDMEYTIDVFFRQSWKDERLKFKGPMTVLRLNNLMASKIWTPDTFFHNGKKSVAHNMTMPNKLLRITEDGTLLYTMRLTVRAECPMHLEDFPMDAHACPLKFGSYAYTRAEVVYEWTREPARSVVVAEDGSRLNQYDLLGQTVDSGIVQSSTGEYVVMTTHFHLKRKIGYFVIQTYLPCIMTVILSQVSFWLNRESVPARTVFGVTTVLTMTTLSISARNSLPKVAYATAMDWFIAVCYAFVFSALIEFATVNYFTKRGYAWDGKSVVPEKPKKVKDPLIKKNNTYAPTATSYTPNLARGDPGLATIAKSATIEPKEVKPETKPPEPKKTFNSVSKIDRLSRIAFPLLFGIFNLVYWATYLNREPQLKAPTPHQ
# T5 sequence (P47870 whole entry): T4 sequence (P47870 whole entry)
# T5 sequence (P18507 whole entry): T4 sequence (P18507 whole entry)
# [19] = biological target: T1, Gamma-aminobutyric acid receptor subunit alpha-4/beta-2/gamma-2; experiment: as §1; assay type: cell-based
# [20] = biological target: T1, Gamma-aminobutyric acid receptor subunit alpha-4/beta-2/gamma-2; experiment: Agonist activity at recombinant human GABA-A alpha4beta2gamma2S receptor transiently expressed in human tsA201 cells at >= 300 uM incubated for 30 mins and measured up to 90 secs by FMP dye based FLIPR membrane potential blue assay; assay type: cell-based
# [21] = biological target: T3, Gamma-aminobutyric acid receptor subunit rho-1; experiment: Antagonist activity at recombinant human GABA-A rho-1 receptor transiently expressed in human tsA201 cells incubated for 30 mins and measured up to 90 secs by FMP dye based FLIPR membrane potential blue assay; assay type: cell-based
# [22] = biological target: T3, Gamma-aminobutyric acid receptor subunit rho-1; experiment: Agonist activity at recombinant human GABA-A rho-1 receptor transiently expressed in human tsA201 cells at 300 uM incubated for 30 mins and measured up to 90 secs by FMP dye based FLIPR membrane potential blue assay; assay type: cell-based
# T3 sequence (P24046 whole entry): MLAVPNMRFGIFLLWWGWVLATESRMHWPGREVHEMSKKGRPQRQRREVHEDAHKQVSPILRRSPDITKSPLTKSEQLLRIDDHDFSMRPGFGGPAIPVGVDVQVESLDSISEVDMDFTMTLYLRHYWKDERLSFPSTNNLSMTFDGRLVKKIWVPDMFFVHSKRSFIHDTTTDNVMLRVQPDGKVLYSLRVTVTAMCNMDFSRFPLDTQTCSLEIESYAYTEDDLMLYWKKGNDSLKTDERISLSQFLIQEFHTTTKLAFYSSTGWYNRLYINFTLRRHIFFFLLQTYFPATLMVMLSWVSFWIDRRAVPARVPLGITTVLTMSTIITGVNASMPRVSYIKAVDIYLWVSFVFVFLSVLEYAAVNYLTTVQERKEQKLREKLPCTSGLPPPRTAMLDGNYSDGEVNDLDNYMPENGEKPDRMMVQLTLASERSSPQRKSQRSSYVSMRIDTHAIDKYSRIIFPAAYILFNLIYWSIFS
# T1 sequence (P48169 whole entry, one chain of several): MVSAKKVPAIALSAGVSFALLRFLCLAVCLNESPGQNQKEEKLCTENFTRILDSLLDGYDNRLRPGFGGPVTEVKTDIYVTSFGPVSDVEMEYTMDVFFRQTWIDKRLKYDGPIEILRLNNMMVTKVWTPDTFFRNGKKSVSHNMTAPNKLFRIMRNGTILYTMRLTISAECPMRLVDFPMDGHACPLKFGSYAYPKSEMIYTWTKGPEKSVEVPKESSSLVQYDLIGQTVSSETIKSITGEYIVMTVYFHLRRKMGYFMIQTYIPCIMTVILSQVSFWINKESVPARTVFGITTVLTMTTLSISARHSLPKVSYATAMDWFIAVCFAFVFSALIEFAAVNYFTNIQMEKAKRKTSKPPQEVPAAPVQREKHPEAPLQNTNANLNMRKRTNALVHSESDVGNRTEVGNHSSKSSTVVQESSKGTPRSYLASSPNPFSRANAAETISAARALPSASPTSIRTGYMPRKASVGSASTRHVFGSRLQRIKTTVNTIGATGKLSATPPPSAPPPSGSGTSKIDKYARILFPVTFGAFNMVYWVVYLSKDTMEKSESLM
# Sequence of Gamma-aminobutyric acid receptor subunit alpha-4/beta-2/gamma-2 (Homo sapiens, UniProt P18507+P47870+P48169) (P48169 whole entry, one chain of several): as above
Rmax [3],Rmax [4],EC50 [6],Rmax [11],Activity [14],Ki [15],pEC50 [17],EC50 [18],EC50 [19],pEC50 [19],SMILES,Rmax [1],pKa at 1000 µM [2],Rmax [5],EC50 ([8]; read-out: EC50),EC50 ([8]; read-out: pEC50 (converted)),Activity [10],also measured
inactive,inactive,24 µM,85%,Active,32 µM,inactive,Not Active,Not Active,inactive,Nc1nc(CC(=O)O)cs1,inactive,6.08,inactive,–,–,Active,Activity [12]: Active; pEC50 [13]: inactive; EC50 [7]: Not Active; pEC50 [7]: inactive; Activity [16]: Active
inactive,inactive,4.5 µM,92%,Active,2.2 µM,inactive,Not Active,Not Active,inactive,CC1(CC(=O)O)CSC(N)=N1 (configuration not stated),80%,–,–,26 µM,25.7 µM,–,Activity [20]: Active; IC50 [21]: 300 µM; Activity [22]: inactive

SMILES,Rmax [3],Rmax [4],EC50 [6],Rmax [11],Activity [14],Ki [15],pEC50 [17],EC50 [18],EC50 [19],pEC50 [19],Rmax [1],pKa at 1000 µM [2],Rmax [5],EC50 ([8]; read-out: EC50),EC50 ([8]; read-out: pEC50 (converted)),Activity [10],also measured
O=C(O)Cc1c[nH]cn1 [IMIDAZOLE ACETIC ACID],81%,46%,1.8 µM,92%,–,–,–,–,–,–,89%,7.13,46%,8.1 µM,8.13 µM,Active,EC50 ([7]; read-out: EC50): 4.6 µM; EC50 [9]: 19 µM
